Laboratory results published in patent publication US11149027B2, “Heterocyclic compound” (Sumitomo Chemical Company, Limited, priority 2016, dated 2021).

How the values were obtained:
[1] = system: houseflies (Musca domestica); assay: Test Example 10: treated filter paper with sucrose, houseflies; type: in vivo; conditions: 500 ppm, 0.7 ml on filter paper with sucrose, female adult, after 24 hours
Procedure: (§1) Test compounds are made to a formulation according to a similar method to that described in the Formulation example 5, and thereto is added water to prepare a diluted solution containing a prescribed concentration of the test compound.
A filter paper having a diameter of 5.5 cm in diameter is spread on the bottom of the cup, and 30 mg of sucrose is placed on the filter paper, and then 0.7 ml of the diluted solutions are added dropwise to the filter paper. Ten (10) houseflies (Musca domestica) female adult are released into the cup. After 24 hours, the number of the died insects is counted, and the mortality of insects is calculated by the following equation. Mortality (%)=(Number of died insects/test insects)×100

[2] = system: brown planthoppers (Nilaparvata lugens); assay: Test Example 4: root uptake by rice seedling from diluted solution, brown planthoppers; type: in vivo; conditions: 1000 ppm, 5 mL diluted solution under rice seedling, third instar larvae released after 7 days, examined after 6 days
Procedure: as §1
The diluted solution 5 mL is added to one cup, and Rice (Oryza sativa) seedling (on the developmental stage of the second true leaf) is planted in the other cup with a hole on the bottom and the other cup is placed on the cup. After 7 days, 20 brown planthoppers (Nilaparvata lugens) at the third instar larval stage are released onto the seedling. After 6 days, the number of the surviving insects is examined, and the mortality is calculated by the following equation. Mortality (%)={1−Number of surviving insects/20}×100

| SMILES | mortality of insects [1] | mortality of insects [2] |
| --- | --- | --- |
| CCS(=O)(=O)c1cccnc1-c1ccc(-n2cnc(C(F)(F)F)c2)nn1 [compound 7] | 100% | – |
| CCS(=O)(=O)c1cccnc1-c1ccc(-n2ccc(C(F)(F)F)n2)nn1 [compound 2] | 100% | – |
| CCS(=O)(=O)c1cccnc1-c1ccc(-n2cnc(C(F)(F)F)n2)nn1 [compound 4] | 100% | – |
| CCS(=O)(=O)c1cccnc1-c1ccc(-n2cc(C(F)(F)F)cn2)nn1 [compound 9] | 100% | ≥ 90% |
